The IC50 is the concentration at which inhibition is half-maximal.

This passage reports IC50 results from ChEMBL document CHEMBL3739309, “Fragment growing exploiting dynamic combinatorial chemistry of inhibitors of the aspartic protease endothiapepsin” (Medchemcomm, 2015).

In this test the target is T1, Endothiapepsin (Cryphonectria parasitica, UniProt P11838).
T1 sequence (P11838 whole entry): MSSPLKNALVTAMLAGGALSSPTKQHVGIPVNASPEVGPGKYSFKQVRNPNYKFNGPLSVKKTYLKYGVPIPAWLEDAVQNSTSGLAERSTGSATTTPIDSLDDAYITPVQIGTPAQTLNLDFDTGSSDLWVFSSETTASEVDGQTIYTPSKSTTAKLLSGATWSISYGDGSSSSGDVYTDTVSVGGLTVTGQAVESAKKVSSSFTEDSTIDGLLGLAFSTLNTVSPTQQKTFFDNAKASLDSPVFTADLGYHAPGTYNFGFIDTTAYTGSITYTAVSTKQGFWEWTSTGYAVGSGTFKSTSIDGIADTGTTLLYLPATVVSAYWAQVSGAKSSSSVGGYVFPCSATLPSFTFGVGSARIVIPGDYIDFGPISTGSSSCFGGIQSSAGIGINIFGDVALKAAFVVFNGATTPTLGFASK
As to the kind of experiment: Inhibition of Cryphonectria parasitica endothiapepsin using 2-aminobenzoyl-Thr-Ile-Nle-Phe(p-NO2)-Gln-Arg-NH2 as substrate assessed as hydrolysis of substrate into 2-aminobenzoyl-Thr-Ile-Nle and Phe(p-NO2)-GLn-Arg-NH2 by fluorescence-based spectrophotometric analysis.

Turning to `N[C@H](C(=O)N/N=C/C1CCCC1)c1ccc(C(F)(F)F)cc1` (mixture of isomers), the concentration for half-maximal inhibition (IC50) came to 85 µM.

In the case of `N[C@H](C(=O)N/N=C/c1ccccc1)c1ccc(C(F)(F)F)cc1` (mixture of isomers), the IC50 came out at 210 µM.
